Data from patent publication US20150164762A1, “USE OF ETHANOLAMINE PHOSPHATE” (priority 2012, published 2015).
Where “and” joins values, the source holds several entries; their conditions need not be identical. Identical values can stand only once.

System: BEAS-2B
Assay: Comprehensive gene expression analysis with Whole Human Genome DNA microarray after EP treatment
Assay type: cell-based
Procedure: Cells of the established normal human airway epithelial cell line BEAS-2B were used in the experiment. These cells were expansively cultured in 10% FBS RPMI-1640, and seeded at a density of 1×10^5/cm^2 on a 24-well plate. After 24 hours 0.1% FBS RPMI-1640 was substituted, and EP was administered to a final concentration of 0 or 1 mM (n=4). After 24 hours, the cells were used as the DNA microarray samples. RNA was extracted using a QIAGEN RNeasy Mini Kit. The DNA microarray test was performed using a Whole Human Genome DNA microarray 4×44K (Agilent), and the necessary labeling reagents and the like for the DNA microarray test were all from Agilent. The DNA microarray test data were analyzed statistically with GeneSpring (Agilent) dedicated analysis software, and gene function analysis (Gene Ontology (GO) analysis) was performed based on differential expression. The purpose of the GO analysis is to determine stochastically the degree to which gene sets with statistically significant differential expression correspond to known functional classification gene sets. […] The p-value is calculated according to the following formula.

[1] = probe A_23_P30122, NM_000586, EP vs control
[2] = probe A_23_P34804, 1 mM EP, 24 h
[3] = probe A_23_P37736, 1 mM EP, 24 h
[4] = probe A_23_P40453, NM_001236, EP vs control
[5] = probe A_23_P45133, NM_27087, EP vs control
[6] = probe A_23_P48740, NM_013989, EP vs control
[7] = probe A_23_P51361, NM_175852, EP vs control
[8] = probe A_23_P53467, 1 mM EP, 24 h
[9] = probe A_23_P54144, 1 mM EP, 24 h
[10] = probe A_23_P55544, 1 mM EP, 24 h
[11] = probe A_23_P56922, 1 mM EP, 24 h
[12] = probe A_23_P56933, 1 mM EP, 24 h
[13] = probe A_23_P58180, NM_207352, EP vs control
[14] = probe A_23_P62959, 1 mM EP, 24 h
[15] = probe A_23_P63898, 1 mM EP, 24 h
[16] = probe A_23_P64129, NM_006410, EP vs control
[17] = probe A_23_P64129, 1 mM EP, 24 h
[18] = probe A_23_P67169, NM_000641, EP vs control
[19] = probe A_23_P68487, NM_001719, EP vs control
[20] = probe A_23_P69030, 1 mM EP, 24 h
[21] = probe A_23_P70398, NM_001025370, EP vs control
[22] = probe A_23_P72096, NM_000575, EP vs control
[23] = probe A_23_P72096, 1 mM EP, 24 h
[24] = probe A_23_P72285, 1 mM EP, 24 h
[25] = probe A_23_P74081, 1 mM EP, 24 h
[26] = probe A_23_P74380, 1 mM EP, 24 h
[27] = probe A_23_P76078, NM_016584, EP vs control
[28] = probe A_23_P81805, NM_001025366, EP vs control
[29] = probe A_23_P82550, 1 mM EP, 24 h
[30] = probe A_23_P87560, 1 mM EP, 24 h
[31] = probe A_23_P88404, 1 mM EP, 24 h
[32] = probe A_23_P88589, 1 mM EP, 24 h
[33] = probe A_23_P89550, 1 mM EP, 24 h
[34] = probe A_23_P89835, 1 mM EP, 24 h
[35] = probe A_23_P90601, NM_182915, EP vs control
[36] = probe A_23_P91504, 1 mM EP, 24 h

NCCOP(=O)(O)O [EP, Ethanolamine phosphate]
BDH1 gene expression, log2 [ratio] (probe A_23_P29754, NM_203314, EP vs control): 0.548
IL2 gene expression, R* ratio to control [1]: 0.537 times
IL2 gene expression, log2 [ratio] [1]: −0.898
NTRK1 expression R: Ratio to control [2]: 0.261 times
NTRK1 expression log2 [ratio] [2]: −1.936
TNFRSF17 expression R*: Ratio to control [3]: 2.525 times
TNFRSF17 expression log2 [ratio] [3]: 1.336
CBR3 gene expression, R* ratio to control [4]: 1.406 times
CBR3 gene expression, log2 [ratio] [4]: 0.491
CSF1 gene expression, R* ratio to control [5]: 0.602 times
CSF1 gene expression, log2 [ratio] [5]: −0.732
DIO2 gene expression, R* ratio to control [6]: 1.694 times
DIO2 gene expression, log2 [ratio] [6]: 0.761
TXLNA gene expression, R* ratio to control [7]: 0.560 times
TXLNA gene expression, log2 [ratio] [7]: −0.837
IKBIP expression R*: Ratio to control [8]: 0.626 times
IKBIP expression log2 [ratio] [8]: −0.675
BMP4 expression R*: Ratio to control [9]: 1.820 times
BMP4 expression log2 [ratio] [9]: 0.864
CCBE1 expression R*: Ratio to control [10]: 1.755 times
CCBE1 expression log2 [ratio] [10]: 0.811
HSPE1 expression R*: Ratio to control [11]: 1.531 times
HSPE1 expression log2 [ratio] [11]: 0.615
RTN4 expression R*: Ratio to control [12]: 1.510 times
RTN4 expression log2 [ratio] [12]: 0.594
CYP4V2 gene expression, R* ratio to control [13]: 2.178 times
CYP4V2 gene expression, log2 [ratio] [13]: 1.123
PHLDA3 expression R: Ratio to control [14]: 0.271 times
PHLDA3 expression log2 [ratio] [14]: −1.884
FAS expression R*: Ratio to control [15]: 0.364 times
FAS expression log2 [ratio] [15]: −1.457
HTATIP2 gene expression, R* ratio to control [16]: 1.735 times
HTATIP2 gene expression, log2 [ratio] [16]: 0.795
HTATIP2 expression R*: Ratio to control [17]: 1.735 times
HTATIP2 expression log2 [ratio] [17]: 0.795
IL11 gene expression, R* ratio to control [18]: 0.358 times
IL11 gene expression, log2 [ratio] [18]: −1.482
BMP7 gene expression, R* ratio to control [19]: 0.136 times
BMP7 gene expression, log2 [ratio] [19]: −2.883
COL8A1 expression R*: Ratio to control [20]: 1.999 times
COL8A1 expression log2 [ratio] [20]: 0.999
VEGFA gene expression, R* ratio to control [21]: 0.501 times
VEGFA gene expression, log2 [ratio] [21]: −0.997
IL1A gene expression, R* ratio to control [22]: 0.216 times
IL1A gene expression, log2 [ratio] [22]: −2.211
IL1A expression R*: Ratio to control [23]: 0.216 times
IL1A expression log2 [ratio] [23]: −2.211
YWHAE expression R*: Ratio to control [24]: 1.529 times
YWHAE expression log2 [ratio] [24]: 0.813 and 0.613
TP73 expression R*: Ratio to control [25]: 0.557 times
TP73 expression log2 [ratio] [25]: −0.843
WARS2 expression R*: Ratio to control [26]: 1.594 times
WARS2 expression log2 [ratio] [26]: 0.673
IL23A gene expression, R* ratio to control [27]: 0.508 times
IL23A gene expression, log2 [ratio] [27]: −0.977
VEGFA gene expression, R* ratio to control [28]: 0.611 times
VEGFA gene expression, log2 [ratio] [28]: −0.710
STK17A expression R*: Ratio to control [29]: 0.623 times
STK17A expression log2 [ratio] [29]: −0.683
BTG1 expression R*: Ratio to control [30]: 0.41B
BTG1 expression log2 [ratio] [30]: −1.265
TGFB3 expression R*: Ratio to control [31]: 0.590 times
TGFB3 expression log2 [ratio] [31]: −0.761
NR2F2 expression R*: Ratio to control [32]: 1.662 times
NR2F2 expression log2 [ratio] [32]: 0.733
NLRP1 expression R*: Ratio to control [33]: 0.483 times
NLRP1 expression log2 [ratio] [33]: −1.048
MAPRE2 expression R*: Ratio to control [34]: 1.538 times
MAPRE2 expression log2 [ratio] [34]: 0.621
STEAP3 gene expression, R* ratio to control [35]: 2.194 times
STEAP3 gene expression, log2 [ratio] [35]: 1.134
ITSN1 expression R*: Ratio to control [36]: 3.487 times
ITSN1 expression log2 [ratio] [36]: 1.802
CIDEC expression R*: Ratio to control (probe A_23_P92025, 1 mM EP, 24 h): 0.593 times
